In patent EP2423181A1, “Multitarget substituted biphenyl diol derivatives” (PROUS INSTITUTE FOR BIOMEDICAL RESEARCH S.A., priority 2010, dated 2012):
Read-outs that look alike come from different tables or passages of the source.

Legend:
[1] = Maximum Tolerated Dose after acute administration; details: mouse, in vivo, po, mice
Method: The Maximum Tolerated Dose (MTD) in mice was determined for selected compounds. The protocol of the studies was in accordance with the standard guidelines for drug development: • (htp://dtp.nci.nih.gov/branches/btb/acute tox.html). Table 10. Maximum Tolerated Doses in mice after acute i.p. administration

COX-1 = biological target: T1, COX-1 (Homo sapiens, UniProt P23219); experiment: COX-1 inhibition in human platelets (PGE2 enzyme immunoassay); assay type: biochemical; details: read-out: % COX-1 Inhibition
T1 construct: endogenous in cells; host or cells: human platelets
Method: (§1) The COX-1 inhibitory activity of representative compounds of the invention was determined according to previously reported methods. COX-1 activity was assessed in human platelets using 100 µM arachidonic acid as a substrate and preincubation and incubation times of 15 min at 37 °C in HBSS, 15 mM HEPES pH 7.4 . The quantification method used was enzyme immunoassay determination of PGE2 (Chan, C.C. et al. J Pharmacol Exp Ther, 1999, 290, 551-560; Swinney, D.C. et al. J Biol Chem, 1997, 272, 12393-12398; Warner, T.D. et al. Proc Natl Acad Sci U S A, 1999, 96, 7563-7568; Riendeau, D. et al. Can J Physiol Pharmacol, 1997, 75, 1088-1095). COX-2 inhibitory activity was determined in human recombinant insect Sf21 cells according to references (Warner, T.D. et al., Proc Natl Acad Sci, USA. 1999;96(13):7563-7568; Riendeau, D. et al., Can J Physiol Pharmacol, 1997 ;75(9):1088-1095). Briefly, the COX-2 inhibitory activity was assessed on human recombinant insect Sf21 cells using 0.3 µM arachidonic acid as a substrate and preincubation and incubation times of 15 and 5 min, respectively, at 37 °C in 100 mM Tris-HCl, pH 7.7. The quantification method used was enzyme immunoassay determination of PGE2. Table 11. Inhibition of COX-1 and COX-2 at 10 µM

COX-2 = biological target: T2, COX-2 (Homo sapiens, UniProt P35354); experiment: COX-2 inhibition (PGE2 enzyme immunoassay); assay type: biochemical; details: read-out: % COX-2 inhibition
T2 construct: host or cells: Sf21 insect cells
T2 sequence (P35354 18-604): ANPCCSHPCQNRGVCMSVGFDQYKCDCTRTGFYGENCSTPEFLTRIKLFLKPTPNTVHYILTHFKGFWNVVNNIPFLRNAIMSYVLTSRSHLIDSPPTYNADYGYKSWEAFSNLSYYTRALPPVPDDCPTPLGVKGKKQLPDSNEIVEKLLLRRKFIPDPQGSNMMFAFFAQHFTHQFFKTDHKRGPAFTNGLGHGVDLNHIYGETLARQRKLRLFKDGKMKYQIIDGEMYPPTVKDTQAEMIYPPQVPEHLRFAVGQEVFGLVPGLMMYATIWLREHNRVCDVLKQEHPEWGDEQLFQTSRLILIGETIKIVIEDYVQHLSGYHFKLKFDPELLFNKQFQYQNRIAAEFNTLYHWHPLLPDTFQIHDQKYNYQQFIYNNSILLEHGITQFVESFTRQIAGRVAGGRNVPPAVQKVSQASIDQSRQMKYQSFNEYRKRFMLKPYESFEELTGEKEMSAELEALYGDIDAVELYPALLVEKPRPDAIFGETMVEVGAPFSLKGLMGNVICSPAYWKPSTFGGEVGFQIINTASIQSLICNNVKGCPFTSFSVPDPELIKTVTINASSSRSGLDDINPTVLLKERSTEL
Method: as §1

5-LO = biological target: T3, 5-LO (Homo sapiens, UniProt P09917); experiment: 5-Lipoxygenase inhibition (LTB4 enzyme immunoassay); assay type: biochemical
T3 construct: host or cells: Sf9 insect cells
T3 sequence (P09917 1-674): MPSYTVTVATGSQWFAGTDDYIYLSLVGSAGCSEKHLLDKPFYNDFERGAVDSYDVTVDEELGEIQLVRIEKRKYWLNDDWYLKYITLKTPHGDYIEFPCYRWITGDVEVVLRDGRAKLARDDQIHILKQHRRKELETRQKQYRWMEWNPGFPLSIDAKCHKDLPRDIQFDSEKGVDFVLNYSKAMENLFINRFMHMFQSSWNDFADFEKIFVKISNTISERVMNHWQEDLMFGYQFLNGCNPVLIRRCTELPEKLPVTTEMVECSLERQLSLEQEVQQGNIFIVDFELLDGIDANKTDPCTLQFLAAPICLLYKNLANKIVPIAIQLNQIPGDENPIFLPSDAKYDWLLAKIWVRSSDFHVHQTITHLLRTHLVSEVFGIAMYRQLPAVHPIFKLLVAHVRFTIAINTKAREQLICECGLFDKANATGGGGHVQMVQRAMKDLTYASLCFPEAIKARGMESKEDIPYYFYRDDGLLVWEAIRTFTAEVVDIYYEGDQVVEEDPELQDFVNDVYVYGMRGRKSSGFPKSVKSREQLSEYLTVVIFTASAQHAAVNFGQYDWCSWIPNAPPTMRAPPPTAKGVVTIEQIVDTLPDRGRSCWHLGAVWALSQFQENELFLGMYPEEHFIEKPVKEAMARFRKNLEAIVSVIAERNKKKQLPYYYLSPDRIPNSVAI
Method: The 5-LO-inhibitory activity of compounds of the invention was determined using previously reported assays. Briefly, lipoxygenase activity was evaluated in human recombinant insect Sf9 cells using 3µM arachidonic acid as a substrate with a preincubation and incubation times of 15 and 5 min respectively at 25°C in a 50 mM Tris-HCl, pH 7.4, 2 mM CaCl2, 1 mM ATP. The quantification method used was enzyme immunoassay determination of LTB4 and the significance criteria were established with a response equal or different of the maximum stimulation or inhibition (Noguchi, M. et al., Eur J Biochem, 1994, 222(2), 285-292; Percival, M.D. et al., Eur J Biochem, 1992, 210(1), 109-117).

mice = details: formalin test, active dose of external active reference, cited from earlier work; for Dose (mg / Kg) Early Response: p.o.; for Dose (mg / Kg) Late Response: route not given
[2] = log D octanol/water distribution coefficient; assay type: physicochemical
From the text: Lipophilicity has been correlated to various drug properties, affecting permeability, absorption, distribution, plasma protein binding, metabolism, elimination, and toxicity. In contrast to honokiol and magnolol, compounds claimed in the invention, and more particularly those wherein the nitrogen atom in the group -O-CH(phenyl)-(CH2)p-NH-R^3 is protonated and the compound further comprises a pharmaceutically acceptable counter-anion present an optimal log Doctanol/water (range 0-3), indicating good aqueous solubility, permeability, oral absorption, and blood-brain barrier penetration. Experimental studies in murine models have confirmed the results.
Absorption, distribution and metabolism studies in vitro with selected examples were performed in order to determine pharmacokinetic parameters such as permeability (or absorption constant), intrinsic clearance (or metabolic clearance), and bioavailability. Physicochemical properties such as water solubility, pKa, log P, and log Doctanol/water, and in vitro experimental studies such as permeability in Caco2 cells, and protein binding in the mouse, stability in murine microsomes, chemical stability at different pH and stability in plasma were evaluated for the pharmacokinetic prediction in mice.

EGFR = biological target: T4, EGFR (Homo sapiens, UniProt P00533); experiment: EGF receptor tyrosine-protein kinase inhibition (ELISA of Poly[Glu:Tyr-P]); assay type: biochemical
T4 construct: EGF receptor tyrosin-protein kinase activity was assessed in human A431 cells; endogenous in cells; host or cells: human A431 cells
Method: EGF receptor tyrosin-protein kinase activity was assessed in human A431 cells using as a substrate Poly(Glu:Tyr) at 10 µg/ml with a preincubation and incubation times of 15 and 60 min, respectively, at 25°C respectively in 50 mM HEPES pH 7.4, 20 mM MgCl2 and 0.2 mM Na3VO4. An ELISA quantification method of Poly[Glu:Tyr-P] was employed (Cheng, K. and Koland, J.G. J Biol Chem, 1996, 271, 311-318). Table 5. Inhibition of EGFR at 10 µM

tumor brain U-87 MG = experiment: Tumor cell proliferation assay (alamarBlue); assay type: cell-based; details: Homo sapiens, U-87 MG
Method: (§2) Changes in cell proliferation were detected based on the ability of viable cells to cause alamarBlue® to change its oxidized (non-fluorescent, blue) to a reduced (fluorescent, red) form. The alamarBlue® reaction allows the quantification of cell proliferation and examination of the metabolic activity of viable cells. Test substances were examined for activity on the proliferation of human or murine tumor cell lines at assay concentrations from 0.01 to 100 µM.

tumor colon HCT-116 = experiment: Tumor cell proliferation assay (alamarBlue); assay type: cell-based; details: Homo sapiens, HCT-116
Method: as §2

tumor leukaemia K562 = experiment: Tumor cell proliferation assay (alamarBlue); assay type: cell-based; details: Homo sapiens, K562
Method: as §2

tumor liver HepG2 = experiment: Tumor cell proliferation assay (alamarBlue); assay type: cell-based; details: Homo sapiens, HepG2
Method: as §2

tumor lung A549 = experiment: Tumor cell proliferation assay (alamarBlue); assay type: cell-based; details: Homo sapiens, A549
Method: as §2

tumor ovary OVCAR-3 = experiment: Tumor cell proliferation assay (alamarBlue); assay type: cell-based; details: Homo sapiens, OVCAR-3
Method: as §2

tumor prostate LNCaP-FGC = experiment: Tumor cell proliferation assay (alamarBlue); assay type: cell-based; details: Homo sapiens
Method: as §2

tumor melanoma B16-FO = experiment: Tumor cell proliferation assay (alamarBlue); assay type: cell-based, murine; details: Mus musculus
Method: as §2

T1 sequence (P23219 24-599): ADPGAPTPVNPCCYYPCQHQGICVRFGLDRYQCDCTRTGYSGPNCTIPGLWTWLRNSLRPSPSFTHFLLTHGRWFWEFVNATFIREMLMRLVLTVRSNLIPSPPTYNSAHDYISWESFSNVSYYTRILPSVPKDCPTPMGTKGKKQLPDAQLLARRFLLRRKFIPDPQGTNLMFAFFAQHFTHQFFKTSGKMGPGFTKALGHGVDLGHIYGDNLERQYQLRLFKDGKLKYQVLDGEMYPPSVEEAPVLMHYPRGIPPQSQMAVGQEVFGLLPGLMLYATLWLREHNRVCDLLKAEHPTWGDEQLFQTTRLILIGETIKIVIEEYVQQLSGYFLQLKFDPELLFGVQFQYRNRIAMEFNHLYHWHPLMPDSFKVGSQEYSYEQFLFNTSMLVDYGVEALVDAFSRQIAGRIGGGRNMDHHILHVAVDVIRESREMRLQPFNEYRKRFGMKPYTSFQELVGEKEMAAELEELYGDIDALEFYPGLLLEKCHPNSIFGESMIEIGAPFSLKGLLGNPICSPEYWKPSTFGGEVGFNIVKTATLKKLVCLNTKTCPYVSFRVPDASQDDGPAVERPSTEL
T4 sequence (P00533 25-1210): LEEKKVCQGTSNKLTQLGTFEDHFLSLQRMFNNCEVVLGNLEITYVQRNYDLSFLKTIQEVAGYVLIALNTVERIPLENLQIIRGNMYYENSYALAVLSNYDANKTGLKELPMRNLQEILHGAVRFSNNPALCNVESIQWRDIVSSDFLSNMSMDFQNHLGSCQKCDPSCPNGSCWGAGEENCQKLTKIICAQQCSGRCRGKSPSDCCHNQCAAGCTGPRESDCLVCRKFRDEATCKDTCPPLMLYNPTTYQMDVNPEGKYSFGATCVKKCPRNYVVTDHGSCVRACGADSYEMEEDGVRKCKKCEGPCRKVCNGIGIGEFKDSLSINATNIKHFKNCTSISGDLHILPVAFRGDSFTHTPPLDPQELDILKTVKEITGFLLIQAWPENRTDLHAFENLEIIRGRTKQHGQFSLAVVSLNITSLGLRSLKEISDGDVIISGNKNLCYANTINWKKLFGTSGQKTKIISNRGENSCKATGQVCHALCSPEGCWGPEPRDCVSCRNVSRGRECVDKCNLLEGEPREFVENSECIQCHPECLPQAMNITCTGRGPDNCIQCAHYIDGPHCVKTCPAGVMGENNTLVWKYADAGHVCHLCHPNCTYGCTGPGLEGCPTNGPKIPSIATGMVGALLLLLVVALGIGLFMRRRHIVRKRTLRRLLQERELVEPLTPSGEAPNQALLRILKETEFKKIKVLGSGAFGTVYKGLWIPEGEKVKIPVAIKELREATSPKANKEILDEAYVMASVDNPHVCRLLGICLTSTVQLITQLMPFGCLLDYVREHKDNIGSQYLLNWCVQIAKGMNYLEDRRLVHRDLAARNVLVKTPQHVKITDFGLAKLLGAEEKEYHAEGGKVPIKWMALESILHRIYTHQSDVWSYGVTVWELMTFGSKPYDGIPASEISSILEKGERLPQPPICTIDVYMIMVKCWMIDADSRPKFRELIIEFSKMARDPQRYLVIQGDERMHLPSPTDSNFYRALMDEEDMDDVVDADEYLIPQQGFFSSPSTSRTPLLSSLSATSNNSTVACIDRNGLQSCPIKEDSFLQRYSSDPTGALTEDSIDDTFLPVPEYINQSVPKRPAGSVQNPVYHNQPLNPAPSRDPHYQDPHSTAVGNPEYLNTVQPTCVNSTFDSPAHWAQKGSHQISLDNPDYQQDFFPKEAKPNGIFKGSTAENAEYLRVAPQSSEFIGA

C=CCc1ccc(OC(CCNC)c2ccccc2)c(-c2ccc(O)c(CC=C)c2)c1.Cl (stereo not drawn) [Example 4, 3,5'-Diallyl-2'-[3-(methylamino)-1-phenylpropoxy]biphenyl-4-ol hydrochloride]
MTD [1]: 30 mg/kg | inhibition at 10 µM (COX-1; at 10 µM, human platelets): 81% | inhibition at 10 µM (COX-2; at 10 µM): 0% | inhibition at 10 µM (5-LO; 5-LO, at 10 µM, read-out: % Inhibition): 100%

CC(=O)Oc1ccccc1C(=O)O [Aspirin]
Dose (mg / Kg) Early Response (mice): 200-400 p.o. mg / Kg | Dose (mg / Kg) Late Response (mice): 300 to 400 mg/kg

C=CCc1ccc(O)c(-c2cc(CC=C)ccc2O)c1 [Magnolol, reference compound]
logDoctanol/water [2]: 5.25 | inhibition at 10 µM (EGFR): -26% | IC50 (tumor brain U-87 MG): 48 µM | IC50 (tumor colon HCT-116): 17 µM | IC50 (tumor leukaemia K562): 48 µM | IC50 (tumor liver HepG2): 12 µM | IC50 (tumor lung A549): 19 µM | IC50 (tumor ovary OVCAR-3): 23 µM | IC50 (tumor prostate LNCaP-FGC): 5.1 µM | IC50 (tumor melanoma B16-FO): 28 µM | inhibition at 10 µM (COX-1): 21% | inhibition at 10 µM (COX-2): 95% | inhibition at 10 µM (5-LO): 67%

CC(=O)Nc1ccc(O)cc1 [Paracetamol]
Dose (mg / Kg) Early Response (mice): 200-400 p.o. mg / Kg | Dose (mg / Kg) Late Response (mice): 300 to 400 mg/kg
